# Measurements taken from article PMC2680961, “Homologous desensitization of signalling by the alpha (α) isoform of the human thromboxane A2 receptor: A specific role for nitric oxide signalling” (Biochimica et Biophysica Acta, 2007).
# Positions count from the first letter of the chain named. Where “and” joins values, the source holds several entries; their conditions need not be identical. Equal entries are not always repeated.
# How the values were obtained:
# TPα = biological target: T1, TPα (Homo sapiens, UniProt P21731); test: Agonist-mediated TP phosphorylation in whole cells, HEK.TPα; assay type: cell-based; conditions: 1 μM U46619 10 min, [32P]orthophosphate labelling, PhosphorImage
# T1 construct: expressed in transfected cells
# T1 sequence (P21731 1-343): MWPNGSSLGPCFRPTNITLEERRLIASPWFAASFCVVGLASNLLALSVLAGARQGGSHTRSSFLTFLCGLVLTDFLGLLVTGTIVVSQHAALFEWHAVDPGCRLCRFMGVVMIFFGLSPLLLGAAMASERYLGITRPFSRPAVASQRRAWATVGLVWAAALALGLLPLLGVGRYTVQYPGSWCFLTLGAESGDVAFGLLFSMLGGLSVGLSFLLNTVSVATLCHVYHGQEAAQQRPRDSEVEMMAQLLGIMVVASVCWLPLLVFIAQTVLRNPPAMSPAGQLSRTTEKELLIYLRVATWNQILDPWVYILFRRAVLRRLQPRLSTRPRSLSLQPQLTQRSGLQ
# Procedure: (§1) Agonist-mediated TP phosphorylation in whole cells (1.8–2 × 10^6 cells/10 cm dish) was performed essentially as previously described. Briefly, cells were transiently co-transfected with pADVA (10 μg), pCMV:Gαq (25 μg) plus pcDNA:βArrestin2 (25 μg) approximately 48 h prior to labelling. Thereafter, cells were washed once in phosphate-free DMEM, 10% dialysed FBS and were metabolically labelled for 60 min in the same medium (2 ml/10 cm dish) containing 100 μCi/ml [^32P] orthophosphate (8000–9000 Ci/mmol) at 37 °C, 5% CO2. Where appropriate, the PKG kinase inhibitor KT 5823 (50 nM) or its vehicle was added during the labelling period. Thereafter, U46619 (1 μM) or an equivalent volume of vehicle (0.01% ethanol in HBS; 20 μl) were added and cells were incubated for 10 min at 37 °C, 5% CO2. Reactions were terminated by transferring the dishes to ice and aspirating the labelled medium and HA-epitope tagged TP receptors were processed and immunoprecipitated using the anti-HA 101R antibody as previously described. Electroblots were then exposed to Xomat XAR (Kodak) film to detect ^32P-labelled proteins. Thereafter, blots were subject to phosphorimage analysis, and the intensities of agonist-induced phosphorylation were expressed in arbitrary units relative to basal (vehicle-stimulated) levels. In parallel experiments, cells were incubated under identical conditions in the absence of [^32P] orthophosphate; HA-tagged TP receptors were immunoprecipitated from the same cell lines using the anti-HA 101R antibody and immunoblots were screened using the anti-HA 3F10 horseradish peroxidase-conjugated antibody.
# TPα^S331,T337A = biological target: T2, TPα^S331,T337A (Homo sapiens, UniProt P21731, S331A/T337A); test: Agonist-mediated TP phosphorylation in whole cells, HEK.TPα^S331,T337A; assay type: cell-based; conditions: 1 μM U46619 10 min
# T2 construct: expressed in transfected cells
# T2 sequence (P21731 1-343 S331A/T337A): T1 sequence (P21731 1-343) with S331A, T337A
# Procedure: as §1, with “In parallel experiments, cells were incubated under identical conditions in the absence of [^32P] orthophosphate; HA-tagged TP receptors were immunoprecipitated from the same cell lines using the anti-HA 101R antibody and immunoblots were screened using the anti-HA 3F10 horseradish peroxidase-conjugated antibody.” left out
# eNOS = eNOS phosphorylation (anti-phospho eNOS^Ser1177 western blot); assay type: cell-based, human; conditions: HEK.TPα cells (also HEK 293, HEK.TPβ); 1 μM U46619 or 10 U/ml Thrombin, 5 min, 37 °C
# Procedure: In order to assess eNOS phosphorylation, HEK.TPα, HEK.TPβ or HEK 293 cells (2 × 10^6 cells/10-cm dish) were plated some 48 h prior to experimentation. Cells were incubated with vehicle, 1 μM U46619 or 10 U/ml Thrombin for 5 min at 37 °C and aliquots of whole cell protein (100 μg/lane) were analysed by SDS-PAGE/western blot. Blots were initially screened using the anti-phospho eNOS^1177 as per supplier's instructions (Cell Signalling Technology) and, following stripping, were subsequently re-screened using the anti-eNOS (Transduction Laboratories).
# TPα^Δ336 = biological target: T3, TPα^Δ336 (Homo sapiens, UniProt P21731); test: [3H]SQ29,548 radioligand binding, Scatchard analysis, HEK.TPα^Δ336
# T3 construct: expressed in transfected cells
# T3 sequence (P21731 1-335): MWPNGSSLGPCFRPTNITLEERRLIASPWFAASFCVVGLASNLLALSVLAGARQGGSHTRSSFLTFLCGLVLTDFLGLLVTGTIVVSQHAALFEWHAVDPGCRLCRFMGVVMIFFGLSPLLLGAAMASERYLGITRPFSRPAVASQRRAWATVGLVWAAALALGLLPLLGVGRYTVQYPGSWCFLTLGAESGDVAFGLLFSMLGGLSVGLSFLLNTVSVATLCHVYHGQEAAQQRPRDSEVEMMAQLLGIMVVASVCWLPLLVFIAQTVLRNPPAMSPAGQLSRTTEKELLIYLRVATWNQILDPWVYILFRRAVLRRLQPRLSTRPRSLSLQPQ
# Procedure: Cells were harvested by centrifugation at 500×g at 4 °C for 5 min and washed three times with ice-cold Ca^2+/Mg^2+-free phosphate-buffered saline (PBS). TP radioligand binding assays were carried out at 30 °C for 30 min in 100 μl reactions in the presence of 0–40 nM [^3H] […] Protein determinations were carried out using the Bradford assay.
# Radioligand binding and Scatchard analysis data were analysed using GraphPad Prisim V4.0 programme (GraphPad Software Inc., San Diego CA, USA). Statistical analyses were carried out using the unpaired Student's t test using the Statworks Analysis Package. p-values ≤ 0.01 indicated statistically significant differences.
Structure (SMILES),U46619-mediated TPα phosphorylation relative to basal (vehicle) (TPα),"U46619-induced phosphorylation of TPα^S331,T337A (TPα^S331,T337A)",eNOS phosphorylation at Ser^1177 (eNOS),Bmax (pmol/mg protein ± S.E.M.) (TPα^Δ336) [pmol/mg protein]
CCCCC[C@H](O)/C=C/[C@@H]1[C@@H](C/C=C\CCCC(=O)O)[C@H]2CO[C@@H]1C2 [U46619],5–7 fold and 5 fold,failed to undergo significant U46619-induced phosphorylation above basal levels,rapid phosphorylation-dependent activation of eNOS,–
"O=C(O)CCC/C=C\C[C@@H]1[C@H](CNNC(=O)Nc2ccccc2)[C@H]2CC[C@@H]1O2 [SQ29,548]",–,–,–,4.43 ± 0.04
